# Target: HPK1 (Homo sapiens (Human), UniProt Q92918)
# Assay: HPK1 Lantha binding assay ("Lanth")
# Conditions: binding assays; Morrison Ki fit
# Method: Example B2: HPK1 Lantha Binding Assay (“Lanth”)
# Procedure: I. Compound Dilution:
# The compounds to be tested were diluted by preparing 12.5 uL/well of 5 mM compound (100×) in columns 2 and 13 and 10 ul/well of DMSO in columns 3-12, 14-23, and wells A1-H1 and I24-P24 of the compound plate using a Bravo liquid handling platform. For the reference compound, the top concentration was 1 mM. To the plate was added 10 ul 2 mM staurosporine in wells J1-P1 and A24-H24. A 11 point 5-fold compound serial dilution was performed using the Bravo liquid handling platform. From the plate were transferred 2.5 ul of the solutions from column 2 and column 13 to the 10 ul of DMSO in columns 3 and 14 & so on. The compound plate was centrifuged at 2500 rpm for 1 min. From the compound plate was transferred 80 nl of the compounds into an assay plate using the Echo liquid handler system. One compound plate makes two assay plates. Each assay plate is sealed and stored in an N2 cabinet.
# The following assay concentrations and times were used: 2 nM HPK1, 2 nM Eu-Anti-GST Ab, and 15 nM Tracer222, with 60 min incubation time.
# III. HPK Lantha Binding Assay:
# For the binding assay, 4 ul 2×HPK1 and Eu-anti-GST antibody were added to each well of the assay plate using a Multidrop reagent dispenser. The solutions were incubated in a 23 C incubator for 1 h. To each well of the assay plate was added 4 ul 2× Tracer-222 using a Multidrop reagent dispenser. The solutions were again incubated in a 23 C incubator for 1 h. The results of the assay were read using an Envision plate reader with the following parameters: TR_FRET, 340 ex/615 and 665em; 100 usec Delay; and 200 usec integration.
# Compound Ki was analyzed using Morrison ki fit model in XL-fit • a. fit=(1−((((E+x)+(Ki*(1+(S/Kd))))−(((((E+x)+(Ki*(1+(S/Kd))))^2)−((4*E)*x))^0.5))/(2*E))) • res=(y−fit) • b. Parameters: • E=enzyme concentration • S=Tracer222 concentration, Kd=Tracer222 Kd • All measurements reported using the same units (uM)
# Exemplary compounds were tested in the binding assays.
# HPK1, sequence (Q92918 1-346 limits assumed): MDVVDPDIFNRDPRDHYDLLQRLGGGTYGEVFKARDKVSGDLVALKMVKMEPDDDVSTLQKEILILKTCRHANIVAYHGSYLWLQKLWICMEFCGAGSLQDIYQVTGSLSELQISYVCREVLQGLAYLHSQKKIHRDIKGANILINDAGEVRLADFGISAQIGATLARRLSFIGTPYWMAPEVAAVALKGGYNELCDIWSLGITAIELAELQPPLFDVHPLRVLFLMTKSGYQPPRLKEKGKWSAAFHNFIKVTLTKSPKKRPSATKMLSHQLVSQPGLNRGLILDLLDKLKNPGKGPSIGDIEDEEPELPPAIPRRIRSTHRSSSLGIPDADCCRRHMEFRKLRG
row,Ki [nM],Structure (SMILES)
1,14.7,"Cc1cn([C@H]2CC[C@@]3(CNc4ncc(-c5ccc(N)c(C(=O)N(C)C)c5F)c(Cl)c43)C2)nc1N (relative stereo) [Compound 177a, 6-Amino-3-((1R,3S)-3-(3-amino-4-methyl-1H-pyrazol-1-yl)-4′-chloro-1′,2′-dihydrospiro[cyclopentane-1,3′-pyrrolo[2,3-b]pyridin]-5′-yl)-2-fluoro-N,N-dimethylbenzamide]"
2,41,"CN(C)CCCN(C)C(=O)c1c(N)ccc(-c2cnc3c(c2Cl)[C@]2(CC[C@](C)(C#N)C2)CN3)c1F (relative stereo) [Compound 275a, 6-Amino-3-((1R,3S)-4′-chloro-3-cyano-3-methyl-1′,2′-dihydrospiro[cyclopentane-1,3′-pyrrolo[2,3-b]pyridin]-5′-yl)-N-(3-(dimethylamino)propyl)-2-fluoro-N-methylbenzamide]"
3,28.4,"C[C@]1(C(N)=O)CC[C@@]2(CNc3ncc(-c4c[nH]c5ccc(C#N)cc45)c(Cl)c32)C1 (relative stereo) [Compound 337a, (1R,3S)-4′-Chloro-5′-(5-cyano-1H-indol-3-yl)-3-methyl-1′,2′-dihydrospiro[cyclopentane-1,3′-pyrrolo[2,3-b]pyridine]-3-carboxamide]"
4,18.7,"CN(C)C(=O)c1c(N)ccc(-c2cnc3c(c2Cl)[C@]2(CN3)C[C@H]2CO)c1F (single isomer, unassigned) [Compound 39d]"
5,39.1,"Nc1cc(-c2cnc3c(c2Cl)[C@]2(CC[C@H](O)C2)CN3)cc(-c2ncccc2CO)c1 (single isomer, unassigned) [Compound 61a]"
6,17.9,"Cn1cccc(-c2cccc(-c3cnc4c(c3Cl)C3(CC[C@@H](O)C3)CN4)c2)c1=O (single isomer, unassigned) [Compound 68a]"
7,14.5,"CN(C)C(=O)c1c(N)ccc(-c2cnc3c(c2Cl)[C@]2(CC[C@H](c4ncn[nH]4)C2)CN3)c1F (single isomer, unassigned) [Compound 99a]"

# The next lines start with the compound.
row,Structure (SMILES),Ki [nM]
1,"CN(C)C(=O)c1c(N)ccc(-c2cnc3c(c2Cl)[C@]2(CC[C@H](Oc4ccccn4)C2)CN3)c1F (relative stereo) [Compound 173a, 6-Amino-3-((1R,3S)-4′-chloro-3-(pyridin-2-yloxy)-1′,2′-dihydrospiro[cyclopentane-1,3′-pyrrolo[2,3-b]pyridin]-5′-yl)-2-fluoro-N,N-dimethylbenzamide]",6.75
2,"Cc1cnn([C@H]2CC[C@@]3(CNc4ncc(-c5ccc(N)c(C(=O)N(C)C)c5F)c(Cl)c43)C2)c1N (relative stereo) [Compound 178a, 6-Amino-3-((1R,3S)-3-(5-amino-4-methyl-1H-pyrazol-1-yl)-4′-chloro-1′,2′-dihydrospiro[cyclopentane-1,3′-pyrrolo[2,3-b]pyridin]-5′-yl)-2-fluoro-N,N-dimethylbenzamide]",15.9
3,"CN(C)C(=O)c1c(N)ccc(-c2cnc3c(c2Cl)[C@]2(CC[C@H](n4cc(C(N)=O)cn4)C2)CN3)c1F (relative stereo) [Compound 180a, 1-((1R,3S)-5′-(4-Amino-3-(dimethylcarbamoyl)-2-fluorophenyl)-4′-chloro-1′,2′-dihydrospiro[cyclopentane-1,3′-pyrrolo[2,3-b]pyridin]-3-yl)-1H-pyrazole-4-carboxamide]",46.1
4,"CN(C)C(=O)c1c(N)ccc(-c2cnc3c(c2Cl)[C@]2(CC[C@H](n4ccccc4=O)C2)CN3)c1F (relative stereo) [Compound 196a, 6-Amino-3-((1R,3S)-4′-chloro-3-(2-oxopyridin-1(2B)-yl)-1′,2′-dihydrospiro[cyclopentane-1,3′-pyrrolo[2,3-b]pyridin]-5′-yl)-2-fluoro-N,N-dimethylbenzamide]",97.6
5,"CN(C)C(=O)c1c(N)ccc(-c2cnc3c(c2Cl)[C@@]2(CN3)C[C@@H]2c2ccncc2)c1F (relative stereo) [Compound 198a, 6-Amino-3-((1R,2R)-4′-chloro-2-(pyridin-4-yl)-1′,2′-dihydrospiro[cyclopropane-1,3′-pyrrolo[2,3-b]pyridin]-5′-yl)-2-fluoro-N,N-dimethylbenzamide]",15.2
6,"CN(C)C(=O)c1c(N)ccc(-c2cnc3c(c2Cl)[C@@]2(CN3)C[C@@H]2c2ccccc2)c1F (relative stereo) [Compound 201a, 6-Amino-3-((1R,2R)-4′-chloro-2-phenyl-1′,2′-dihydrospiro[cyclopropane-1,3′-pyrrolo[2,3-b]pyridin]-5′-yl)-2-fluoro-N,N-dimethylbenzamide]",3.58
7,"CN(C)C(=O)c1c(N)ccc(-c2cnc3c(c2Cl)[C@]2(CC[C@H](CO)C2)CN3)c1F (relative stereo) [Compound 259a, 6-Amino-3-((1R,3S)-4′-chloro-3-(hydroxymethyl)-1′,2′-dihydrospiro[cyclopentane-1,3′-pyrrolo[2,3-b]pyridin]-5′-yl)-2-fluoro-N,N-dimethylbenzamide]",6.1
8,"CN(CCN1CCOCC1)C(=O)c1c(N)ccc(-c2cnc3c(c2Cl)[C@]2(CC[C@](C)(C#N)C2)CN3)c1F (relative stereo) [Compound 272a, 6-Amino-3-((1R,3S)-4′-chloro-3-cyano-3-methyl-1′,2′-dihydrospiro[cyclopentane-1,3′-pyrrolo[2,3-b]pyridin]-5′-yl)-2-fluoro-N-methyl-N-(2-morpholinoethyl)benzamide]",30.8
9,"CN1CCN(c2cccc3c(-c4cnc5c(c4Cl)[C@]4(CC[C@H](C(N)=O)C4)CN5)c[nH]c23)C(=O)C1 (relative stereo) [Compound 304a, (1R,3S)-4′-Chloro-5′-(7-(4-methyl-2-oxopiperazin-1-yl)-1H-indol-3-yl)-1′,2′-dihydrospiro[cyclopentane-1,3′-pyrrolo[2,3-b]pyridine]-3-carboxamide]",43.9
10,"NC(=O)[C@H]1CC[C@@]2(CNc3ncc(-c4c[nH]c5c(N6CCNCC6=O)cccc45)c(Cl)c32)C1 (relative stereo) [Compound 305a, (1RS,3SR)-4′-Chloro-5′-(7-(2-oxopiperazin-1-yl)-1H-indol-3-yl)-1′,2′-dihydrospiro[cyclopentane-1,3′-pyrrolo[2,3-b]pyrdine]-3-carboxamide]",38.6
11,"C[C@@H]1C[C@@]12CNc1ncc(-c3c[nH]c4c(N5CCNCC5=O)cccc34)cc12 (relative stereo) [Compound 306a, 1-(3-((1R,2R)-2-methyl-1′,2′-dihydrospiro[cyclopropane-1,3′-pyrrolo[2,3-b]pyridin]-5′-yl)-1H-indol-7-yl)piperazin-2-one]",43.2
12,"C[C@]1(C#N)CC[C@@]2(CNc3ncc(-c4c[nH]c5ccc(C#N)cc45)c(Cl)c32)C1 (relative stereo) [Compound 330a, (1R,3S)-4′-Chloro-5′-(5-cyano-1H-indol-3-yl)-3-methyl-1′,2′-dihydrospiro[cyclopentane-1,3′-pyrrolo[2,3-b]pyridine]-3-carbonitrile]",73.9
13,"CN(C)C(=O)c1c(N)ccc(-c2cnc3c(c2Cl)[C@@]2(CN3)C[C@@H]2CO)c1F (single isomer, unassigned) [Compound 39c]",11.6
14,"Nc1cc(-c2cnc3c(c2Cl)[C@@]2(CC[C@@H](O)C2)CN3)cc(-c2ncccc2CO)c1 (single isomer, unassigned) [Compound 61b]",12.1
15,"Cn1cccc(-c2cccc(-c3cnc4c(c3Cl)C3(CC[C@@H](O)C3)CN4)c2)c1=O (single isomer, unassigned) [Compound 68b]",7.7
16,"CN(C)C(=O)c1c(N)ccc(-c2cnc3c(c2Cl)[C@]2(CC[C@@H](n4ccnn4)C2)CN3)c1F (single isomer, unassigned) [Compound 90c]",80.4

# From patent US12208088B2 (Genentech, Inc., priority 2018, dated 2025)
